According to PubChem BioAssay AID328 (DTP/NCI, 2004):
“And” between values parts separate entries of the source, which are not always exact repeats. Equal values may be shown once. Inconclusive results and toxic doses are left out. How the source made its calls: active means survival T/C of 150% or more; inactive means T/C below 125% in these data.

Tested on: BDF1 mice, P388 leukemia ip, median survival T/C
Test: NCI In Vivo Anticancer Drug Screen. Data for tumor model P388 Leukemia (intraperitoneal) in B6D2F1 (BDF1) mice
Settings: endpoint: median survival time, higher = longer survival
Outline: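 T/C = treated-group survival ÷ vehicle-control survival; tumour transplanted into mice before dosing.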

[1] = dose: 100.0 mg/kg/injection, schedule: Q04DX003 (ip), vehicle: saline
[2] = dose: 200.0 mg/kg/injection, schedule: Q04DX003 (ip), vehicle: saline
[3] = dose: 400.0 mg/kg/injection, schedule: Q04DX003 (ip), vehicle: saline
[4] = dose: 100.0 mg/kg/injection, schedule: Q01DX009 (ip), vehicle: saline
[5] = dose: 200.0 mg/kg/injection, schedule: Q01DX009 (ip), vehicle: saline
[6] = dose: 50.0 mg/kg/injection, schedule: Q01DX009 (ip), vehicle: saline
[7] = dose: 100.0 mg/kg/injection, schedule: Q04DX003 (ip), vehicle: Klucel (hydroxypropylcellulose) (HPC)
[8] = dose: 200.0 mg/kg/injection, schedule: Q04DX003 (ip), vehicle: Klucel (hydroxypropylcellulose) (HPC)
[9] = dose: 400.0 mg/kg/injection, schedule: Q04DX003 (ip), vehicle: Klucel (hydroxypropylcellulose) (HPC)
[10] = dose: 100.0 mg/kg/injection, schedule: Q01DX009 (ip), vehicle: saline with Tween-80
[11] = dose: 100.0 mg/kg/injection, schedule: Q04DX003 (ip), vehicle: saline with Tween-80
[12] = dose: 200.0 mg/kg/injection, schedule: Q01DX009 (ip), vehicle: saline with Tween-80
[13] = dose: 200.0 mg/kg/injection, schedule: Q04DX003 (ip), vehicle: saline with Tween-80
[14] = dose: 400.0 mg/kg/injection, schedule: Q01DX009 (ip), vehicle: saline with Tween-80
[15] = dose: 400.0 mg/kg/injection, schedule: Q04DX003 (ip), vehicle: saline with Tween-80
[16] = dose: 6.25 mg/kg/injection, schedule: Q01DX009 (ip), vehicle: saline
[17] = dose: 25.0 mg/kg/injection, schedule: Q01DX009 (ip), vehicle: saline
[18] = dose: 12.5 mg/kg/injection, schedule: Q01DX009 (ip), vehicle: saline with Tween-80
[19] = dose: 25.0 mg/kg/injection, schedule: Q01DX009 (ip), vehicle: saline with Tween-80
[20] = dose: 50.0 mg/kg/injection, schedule: Q01DX009 (ip), vehicle: saline with Tween-80
[21] = dose: 25.0 mg/kg/injection, schedule: Q04DX003 (ip), vehicle: saline sonified
[22] = dose: 12.5 mg/kg/injection, schedule: Q01DX009 (ip), vehicle: saline
[23] = dose: 6.25 mg/kg/injection, schedule: Q01DX009 (ip), vehicle: saline with Tween-80

Measured: T/C

CC1(C)OB(C(B2OC(C)(C)C(C)(C)O2)=C(CCl)CCl)OC1(C)C
inactive: dose: 25.0 mg/kg/injection, schedule: Q01DX001 (ip), vehicle: saline sonified 86 % of control | dose: 50.0 mg/kg/injection, schedule: Q01DX001 (ip), vehicle: saline sonified 95 % of control | dose: 100.0 mg/kg/injection, schedule: Q01DX001 (ip), vehicle: saline sonified 95 % of control

CC(=O)NC(C)C(=O)NC(CC(=O)O)C(=O)O (stereo unspecified)
inactive: dose: 50.0 mg/kg/injection, schedule: Q01DX005 (ip), vehicle: saline 97 % of control | dose: 100.0 mg/kg/injection, schedule: Q01DX005 (ip), vehicle: saline 100 % of control | dose: 200.0 mg/kg/injection, schedule: Q01DX005 (ip), vehicle: saline 103 % of control

CCOC(=O)C1CC=CCC1C(=O)OCC (stereo unspecified)
inactive: [1] 118 % of control | [2] 118 % of control | [3] 109 % of control

O=S(O)OS(=O)O
inactive: dose: 90.0 mg/kg/injection, schedule: Q01DX009 (ip), vehicle: saline 105 % of control | [4] 100 % of control | [1] 96 % of control | dose: 133.0 mg/kg/injection, schedule: Q01DX009 (ip), vehicle: saline 95 % of control and 100 % of control | [5] 100 % of control and 116 % of control | [2] 92 % of control | dose: 400.0 mg/kg/injection, schedule: Q01DX009 (ip), vehicle: saline 104 % of control | [3] 96 % of control

NC(=O)OCCCCCl
inactive: [6] 110 % of control | [4] 107 % of control | [5] 100 % of control

CSc1ccc(NC(=O)Nc2ccc(N=Nc3ccccc3)cc2)cc1
inactive: dose: 42.5 mg/kg/injection, schedule: Q01DX009 (ip), vehicle: Klucel (hydroxypropylcellulose) (HPC) 100 % of control | dose: 85.0 mg/kg/injection, schedule: Q01DX009 (ip), vehicle: Klucel (hydroxypropylcellulose) (HPC) 100 % of control | dose: 170.0 mg/kg/injection, schedule: Q01DX009 (ip), vehicle: Klucel (hydroxypropylcellulose) (HPC) 100 % of control

O=C1NC(=O)C2C3C(C(O)(c4ccccc4)c4ccccn4)=CC(/C3=C(\c3ccccc3)c3ccccn3)C12 (stereo unspecified)
inactive: dose: 12.5 mg/kg/injection, schedule: Q01DX009 (ip), vehicle: Klucel (hydroxypropylcellulose) (HPC) 100 % of control | dose: 25.0 mg/kg/injection, schedule: Q01DX009 (ip), vehicle: Klucel (hydroxypropylcellulose) (HPC) 113 % of control | dose: 50.0 mg/kg/injection, schedule: Q01DX009 (ip), vehicle: Klucel (hydroxypropylcellulose) (HPC) 86 % of control | [7] 109 % of control | [8] 100 % of control | [9] 100 % of control

CN(N=O)C(=O)NNC(=O)N(C)N=O
inactive: dose: 40.0 mg/kg/injection, schedule: Q04DX003 (ip), vehicle: saline with Tween-80 105 % of control | dose: 60.0 mg/kg/injection, schedule: Q04DX003 (ip), vehicle: saline with Tween-80 115 % of control | dose: 90.0 mg/kg/injection, schedule: Q04DX003 (ip), vehicle: saline with Tween-80 105 % of control

CCOC(=O)C(C)C(OCC)OCC (stereo unspecified)
inactive: [10] 95 % of control | [11] 100 % of control | [12] 109 % of control | [13] 91 % of control | [14] 109 % of control | [15] 100 % of control

ClCCCCCCCCCCc1ccccc1
inactive: dose: 50.0 mg/kg/injection, schedule: Q04DX003 (ip), vehicle: saline with Tween-80 106 % of control | [11] 109 % of control and 110 % of control | [13] 108 % of control and 118 % of control

CCN(CC)CCNc1ccc(N=Nc2cnc3ccccc3c2)c2ccccc12
inactive: dose: 75.0 mg/kg/injection, schedule: Q01DX009 (ip), vehicle: Klucel (hydroxypropylcellulose) (HPC) 95 % of control | dose: 115.0 mg/kg/injection, schedule: Q01DX009 (ip), vehicle: Klucel (hydroxypropylcellulose) (HPC) 100 % of control

CCN(CC)CCCCCCNc1cc(OC)c(OC)c2c(C)ccnc12
inactive: dose: 3.13 mg/kg/injection, schedule: Q01DX009 (ip), vehicle: saline 102 % of control | [16] 109 % of control

Nc1[nH]c(=O)nc2nc[nH]c12
inactive: [17] 112 % of control | [6] 98 % of control | [4] 119 % of control

COC(=O)C(C)=O
inactive: [10] 90 % of control | [12] 95 % of control | [14] 90 % of control

NC(=S)NNC(=O)C(Cc1ccccc1)NC(=O)OCc1ccccc1 (stereo unspecified)
inactive: [18] 100 % of control | [19] 94 % of control

CCO/C(N)=N/OS(=O)(=O)c1ccccc1
inactive: [11] 99 % of control | [13] 96 % of control | [15] 98 % of control

N#CC(C#N)=Cc1cccc2ccccc12
inactive: [7] 104 % of control | [8] 100 % of control | [9] 113 % of control

CCCCCCCCC(=O)CCC
inactive: dose: 50.0 mg/kg/injection, schedule: Q04DX003 (ip), vehicle: Klucel (hydroxypropylcellulose) (HPC) 100 % of control | [7] 109 % of control | [8] 100 % of control | [9] 87 % of control

CC1(C)C2CCC1(C)C1(C2)OC(CCl)CS1 (stereo unspecified)
inactive: [20] 90 % of control | [10] 94 % of control | [12] 108 % of control

CCC12CCCN3C(=O)CC(C(=O)CC1)C32 (stereo unspecified)
inactive: [21] 95 % of control | dose: 50.0 mg/kg/injection, schedule: Q04DX003 (ip), vehicle: saline sonified 109 % of control | dose: 100.0 mg/kg/injection, schedule: Q04DX003 (ip), vehicle: saline sonified 109 % of control

Oc1c(CN2CCOCC2)cc(CN2CCOCC2)cc1CN1CCOCC1
inactive: [10] 91 % of control | [12] 86 % of control | [14] 100 % of control

Cc1ncc(/C=C/C(=O)O)c(C=O)c1O
inactive: dose: 6.25 mg/kg/injection, schedule: Q04DX003 (ip), vehicle: saline 103 % of control | dose: 12.5 mg/kg/injection, schedule: Q04DX003 (ip), vehicle: saline 101 % of control | dose: 25.0 mg/kg/injection, schedule: Q04DX003 (ip), vehicle: saline 100 % of control

[O-]c1c(Cl)c(Cl)c(O[P+](c2ccccc2)(c2ccccc2)c2ccccc2)c(Cl)c1Cl
inactive: [16] 116 % of control | [22] 122 % of control

CSc1ccccc1C=O
inactive: [7] 95 % of control | [8] 100 % of control | [9] 112 % of control

CN(C)CCC(=O)O
inactive: [10] 100 % of control | [12] 95 % of control | [14] 90 % of control

CC(C)=CCc1cc(O)ccc1O
inactive: [23] 108 % of control | [19] 112 % of control | [20] 101 % of control

CC1CC(OC(=O)CCN2CC2)CC(C)(C)C1 (stereo unspecified)
inactive: dose: 5.0 mg/kg/injection, schedule: Q04DX003 (ip), vehicle: Klucel (hydroxypropylcellulose) (HPC) 95 % of control and 109 % of control | dose: 10.0 mg/kg/injection, schedule: Q04DX003 (ip), vehicle: Klucel (hydroxypropylcellulose) (HPC) 104 % of control | dose: 20.0 mg/kg/injection, schedule: Q04DX003 (ip), vehicle: Klucel (hydroxypropylcellulose) (HPC) 100 % of control

CSC(=S)NNC(=O)c1cccc([N+](=O)[O-])c1
inactive: dose: 6.25 mg/kg/injection, schedule: Q04DX003 (ip), vehicle: saline sonified 110 % of control | dose: 12.5 mg/kg/injection, schedule: Q04DX003 (ip), vehicle: saline sonified 105 % of control | [21] 100 % of control

NC1C=CC(CCC(N)C(=O)O)C=C1 (stereo unspecified)
inactive: [22] 100 % of control | [17] 100 % of control and 105 % of control | [6] 100 % of control | [4] 110 % of control

[Au].c1ccc(-c2nn[nH]n2)cc1.c1ccc(P(c2ccccc2)c2ccccc2)cc1
inactive: [23] 104 % of control | [18] 106 % of control | [19] 123 % of control

CC[N+](CC)(CC)CCCNC1=CC(=O)C(NCCC[N+](CC)(CC)CC)=CC1=O
inactive: dose: 0.39 mg/kg/injection, schedule: Q04DX003 (ip), vehicle: saline 99 % of control | dose: 0.78 mg/kg/injection, schedule: Q04DX003 (ip), vehicle: saline 99 % of control
